Legend:
[1] = Proposed mechanism(s) of liver damage. [column 'MEC' in source]; conditions: human
[2] = human, serum
[3] = Highest frequency of moderate liver toxicity observed during clinical trials, expressed as a percentage. [column '% BIOL' in source]; conditions: human
[4] = human
[5] = human; remark: listed apart in the source
[6] = human; remark: listed apart in the source
[7] = human; remark: listed apart in the source
[8] = human; remark: listed apart in the source
[9] = human; remark: listed apart in the source
[10] = human, serum; remark: listed apart in the source
[11] = Highest frequency of acute liver toxicity observed during clinical trials, expressed as a percentage. [column '% AIGUE' in source]; conditions: human
[12] = human, serum, 4383 h
[13] = human; remark: listed apart in the source
[14] = Presence of at least one case with successful reintroduction. [column 'REINT' in source]; conditions: human
[15] = Times to onset, minimal and maximal, observed in the indexed observations. [column 'DELAI' in source]; conditions: human
[16] = human; remark: listed apart in the source
[17] = human; remark: listed apart in the source
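For Hepatotoxicity (association with vascular disease) in this document: count of indexed literature references reporting vascular liver injury in humans, e.g. peliosis hepatitis, hepatic veno-occlusive disease or Budd-Chiari syndrome.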
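For Hepatotoxicity (benign tumour) in this document: value is a count of indexed literature references citing a benign tumour confirmed by histopathology.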
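For Hepatotoxicity (choleostasis) in this document: human cholestatic liver injury, shown by histopathology or by peak ALT or AST elevation over alkaline phosphatase ratio below 2, value counts indexed literature reports.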
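For Hepatotoxicity (chronic liver disease) in this document: chronic liver injury confirmed by histopathology or persistently raised serum aminotransferase activity beyond 6 months, value given as the count of indexed literature references.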
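For Hepatotoxicity (cirrhosis) in this document: value is a count of indexed literature references reporting cirrhosis confirmed by histopathology.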
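For Hepatotoxicity (cytolytic) in this document: human cytolytic liver injury, shown by histopathology or by a ratio above 5 of peak ALT or AST elevation to alkaline phosphatase elevation, value counts indexed references.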
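For Hepatotoxicity (granulomatous hepatitis) in this document: value is a count of indexed literature references reporting granulomatous liver disease confirmed by histopathology.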
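For Hepatotoxicity (malignant tumour) in this document: malignant tumour confirmed by histopathology, value gives the count of indexed literature references reporting it.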
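For Hepatotoxicity (severe hepatitis) in this document: human clinical data: severe hepatitis, meaning potentially life-threatening liver failure or clinically observed cases, the value counts how many indexed literature references report it.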
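For Hepatotoxicity (steatosis) in this document: steatosis confirmed by histopathology, value is the count of indexed references.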

Row | Compound | Hepatotoxicity (mechanism) [1] | Hepatotoxicity (moderate) [2] | Hepatotoxicity (moderate) [3] [%] | Hepatotoxicity (choleostasis) [4] | Hepatotoxicity (steatosis) [5] | Hepatotoxicity (granulomatous hepatitis) [6] | Hepatotoxicity (association with vascular disease) [7] | Hepatotoxicity (cirrhosis) [8] | Hepatotoxicity (severe hepatitis) [9] | Hepatotoxicity (acute) [10] | Hepatotoxicity (acute) [11] [%] | Hepatotoxicity (chronic liver disease) [12] | Hepatotoxicity (benign tumour) [13] | Hepatotoxicity (successful reintroduction) [14] | Hepatotoxicity (time to onset) [15] | Hepatotoxicity (cytolytic) [16] | Hepatotoxicity (malignant tumour) [17] | further results
1 | CCc1nn(CCCN2CCN(c3cccc(Cl)c3)CC2)c(=O)n1CCOc1ccccc1 [NEFAZODONE] | Allergic | 4 | 0 | 0 | 0 | 0 | 0 | 0 | 11 | 16 | 0 | 0 | 0 | yes | 1 week - 2 years | 14 | 0 | –
2 | NC(=O)c1cccnc1 [NIACINAMIDE] | Dose-dependant | 1 | 6.3 | 0 | 0 | 0 | 0 | 0 | 0 | 2 | 0 | 0 | 0 | yes | < 2 months - 3 months | 1 | 0 | –
3 | O=C(O)c1cccnc1Nc1cccc(C(F)(F)F)c1 [NIFLUMIC ACID] | Allergic | 0 | 0 | 1 | 0 | 0 | 0 | 0 | 2 | 4 | 0 | 0 | 0 | yes | 3 days - 3.5 weeks | 4 | 0 | –
4 | COc1ccc2[nH]c([S+]([O-])Cc3ncc(C)c(OC)c3C)nc2c1 (stereo unspecified) [OMEPRAZOLE] | Dose-dependant | 24 | 47 | 3 | 0 | 0 | 0 | 0 | 1 | 10 | 3.1 | 0 | 0 | yes | 2 days - 1 year | 8 | 0 | –
5 | O=C1c2ccccc2C(=O)C1c1ccccc1 [PHENINDIONE] | Allergic | 1 | 0 | 11 | 0 | 1 | 0 | 0 | 1 | 13 | 0.2 | 0 | 0 | yes | 1 week - 2 months | 3 | 0 | –
6 | CC(C(=O)O)c1ccc(N2CC=CC2)c(Cl)c1 (stereo unspecified) [PIRPROFEN] | Toxic Metabolite | 5 | 2.8 | 2 | 2 | 0 | 0 | 1 | 8 | 9 | 0.3 | 1 | 0 | yes | 1 week - 1 year | 9 | 0 | –
7 | Cc1ncc(CO)c(CO)c1O [PYRIDOXINE] | – | 2 | – | – | 0 | – | 0 | 0 | – | 1 | – | 0 | 0 | yes | 2 months | – | 0 | Hepatotoxicity (mechanism) ([1]; Liver): Dose-dependant; Hepatotoxicity (moderate) ([3]; Liver): 6%; Hepatotoxicity (choleostasis) ([4]; Liver): 0; Hepatotoxicity (granulomatous hepatitis) ([6]; Liver): 0; Hepatotoxicity (severe hepatitis) ([9]; Liver): 0; Hepatotoxicity (acute) ([11]; Liver): 0%; Hepatotoxicity (cytolytic) ([16]; Liver): 1
8 | CCC1NC(=O)c2cc(S(N)(=O)=O)c(Cl)cc2N1 (stereo unspecified) [QUINETHAZONE] | Allergic | 0 | 0 | 1 | 0 | 0 | 0 | 0 | 0 | 1 | 0 | 0 | 0 | yes | 2 months | 0 | 0 | –
9 | Cc1nc2ccc(CN(C)c3ccc(C(=O)N[C@@H](CCC(=O)O)C(=O)O)s3)cc2c(=O)[nH]1 [RALTITREXED] | Dose-dependant | 20 | 100 | 1 | 1 | 0 | 0 | 1 | 3 | 8 | 21.9 | 0 | 0 | yes | 2 weeks - 17 weeks | 7 | 0 | –
10 | CCCCCCCCNC(C)C(O)c1ccc(SC(C)C)cc1 (stereo unspecified) [SULOCTIDIL] | Allergic | 3 | 15 | 3 | 1 | 0 | 0 | 4 | 2 | 8 | 0.5 | 1 | 0 | yes | 1 week - 1 year | 7 | 0 | –
11 | Cn1c(=O)c2[nH]cnc2n(C)c1=O.O [THEOPHYLLINE] | Dose-dependant | 2 | 55.6 | 0 | 0 | 0 | 0 | 0 | 0 | 1 | 0 | 0 | 0 | yes | 4 days - 11 days | 1 | 0 | –
12 | CCCC(C)C1(CC)C(=O)NC(=S)NC1=O (stereo unspecified) [THIOPENTAL] | Dose-dependant | 4 | 87 | 0 | 1 | 0 | 0 | 0 | 0 | 2 | 0 | 0 | 0 | yes | 1 day - 5 days | 1 | 0 | –
13 | INTERFERON GAMMA-1A | Dose-dependant | 50 | 65 | 0 | 0 | 0 | 0 | 0 | 1 | 3 | 0 | 0 | 0 | yes | 6 days - 3 months | 2 | 0 | –
